Our source for the TGI and GI50 values is PubChem BioAssay (NCI).

Among the test systems are A498 renal; LOX IMVI melanoma; UO-31 renal; HCT-116 colon; MOLT-4 leukemia; NCI-H522 lung; SN12C renal; HCT-15 colon; SF-295 CNS.
What all share (test): NCI anticancer screen, dose series, 48 h

SMILES strings stand for the structures.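 The compound was tested at five concentrations on cells cultured in 96-well plates, with a 48-hour exposure period. GI50 marks 50% less growth. TGI: total growth inhibition.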 Bounds are passed on as bounds.

As to `CCCn1c(SC)nc(COC(=O)NC)c1COC(=O)NC`, the TGI in the experiment with A498 renal, with LOX IMVI melanoma, in the experiment with UO-31 renal, in the experiment with HCT-116 colon, in the experiment with MOLT-4 leukemia and in the experiment with NCI-H522 lung was more than 100 µM in each case. For the same molecule, the TGI in the experiment on SN12C renal, in the experiment on HCT-15 colon and in the experiment with SF-295 CNS was more than 100 µM throughout.
For `CCCc1c(CC)c(=N)c2ccccc2n1C`, the GI50 with A498 renal was 22.8 µM; with LOX IMVI melanoma, more than 100 µM; in the experiment on UO-31 renal it was more than 100 µM; with HCT-116 colon, more than 100 µM; with MOLT-4 leukemia it was more than 100 µM; with NCI-H522 lung, 65.6 µM. For the same molecule, the GI50 with SN12C renal is 35.8 µM; in the experiment on HCT-15 colon, more than 100 µM; in the experiment on SF-295 CNS it was 57 µM. For the same molecule, the TGI in the experiment on A498 renal, with LOX IMVI melanoma, with UO-31 renal, in the experiment on HCT-116 colon, with MOLT-4 leukemia and in the experiment with NCI-H522 lung was more than 100 µM each time. The TGI with SN12C renal, in the experiment on HCT-15 colon and in the experiment on SF-295 CNS was more than 100 µM throughout.
For `Oc1ccc(C(c2ccc(O)cc2)c2ccc(Cl)cn2)cc1`, the GI50 was 0.344 µM in the experiment with A498 renal; 0.295 µM in the experiment on LOX IMVI melanoma; 2.04 µM with UO-31 renal; 0.473 µM in the experiment on HCT-116 colon; 23.7 µM with MOLT-4 leukemia; 2.63 µM with NCI-H522 lung. The GI50 in the experiment on SN12C renal was 0.0408 µM; in the experiment on HCT-15 colon it was 0.337 µM; in the experiment on SF-295 CNS it was 0.403 µM. The TGI in the experiment on A498 renal is 26.5 µM; in the experiment on LOX IMVI melanoma, more than 100 µM; with UO-31 renal it was more than 100 µM; in the experiment on HCT-116 colon, more than 100 µM; in the experiment with MOLT-4 leukemia, more than 100 µM; with NCI-H522 lung it was 69.8 µM. Moreover, the TGI in the experiment on SN12C renal came out at 0.331 µM; in the experiment with HCT-15 colon it was 56.1 µM; with SF-295 CNS, 7.21 µM.
Consider `O=C(Nc1ccc(F)cc1)c1ccc(NC2=C(Cl)C(=O)N(Cc3ccccc3)C2=O)cc1`, for which the GI50 in the experiment on A498 renal is 13.6 µM; in the experiment on LOX IMVI melanoma it was 11.3 µM; with UO-31 renal it was 10.5 µM; with HCT-116 colon it was 2.23 µM; with MOLT-4 leukemia, 3.79 µM; in the experiment with NCI-H522 lung, 7.27 µM. Moreover, the GI50 in the experiment on SN12C renal is 4.12 µM; in the experiment on HCT-15 colon, 13.3 µM; in the experiment on SF-295 CNS, 4.27 µM. Moreover, the TGI worked out at 31.9 µM in the experiment on A498 renal; 25.2 µM in the experiment with LOX IMVI melanoma; 23.4 µM with UO-31 renal; 4.82 µM in the experiment with HCT-116 colon; 21 µM in the experiment on MOLT-4 leukemia; 28.8 µM in the experiment on NCI-H522 lung. Besides, the TGI came to 16.4 µM with SN12C renal, 49.4 µM in the experiment on HCT-15 colon and 16.6 µM in the experiment on SF-295 CNS.
Regarding `C=CCN(/C=C1/C(=O)O[C@H](COC)[C@@]2(C)C1=C(O)C(=O)C1=C2[C@H](OC(C)=O)C[C@]2(C)C(=O)CC[C@@H]12)CC=C`, the GI50 was 0.0205 µM in the experiment with A498 renal; 1.65 µM in the experiment with LOX IMVI melanoma; 0.148 µM in the experiment on UO-31 renal; 1.17 µM with HCT-116 colon; 1.05 µM in the experiment with MOLT-4 leukemia; 1.41 µM with NCI-H522 lung. The GI50 in the experiment on SN12C renal is 1.11 µM; with HCT-15 colon it was 1.19 µM; in the experiment on SF-295 CNS it was 0.573 µM. Besides, the TGI was 0.103 µM in the experiment with A498 renal; more than 10 µM in the experiment with LOX IMVI melanoma; more than 10 µM in the experiment on UO-31 renal; more than 10 µM in the experiment with HCT-116 colon; more than 10 µM in the experiment with MOLT-4 leukemia; more than 10 µM in the experiment on NCI-H522 lung. Besides, the TGI in the experiment on SN12C renal, in the experiment on HCT-15 colon and in the experiment with SF-295 CNS was more than 10 µM in each case.
For the molecule `COc1ccc2c(c1)/C(=C\c1cccnc1)C(=O)N2`, the GI50 in the experiment on A498 renal was 23.4 µM; in the experiment with LOX IMVI melanoma it was 8.83 µM; in the experiment on UO-31 renal, 25.9 µM; with HCT-116 colon, 9.72 µM; in the experiment with MOLT-4 leukemia it was 23 µM; in the experiment with NCI-H522 lung, 17.8 µM. Further, the results for the GI50 in the experiment on SN12C renal, with HCT-15 colon and in the experiment with SF-295 CNS were 7.38 µM, 14.4 µM and 13.4 µM, respectively. Moreover, the TGI is 49.8 µM with A498 renal; 25.3 µM in the experiment on LOX IMVI melanoma; more than 100 µM with UO-31 renal; more than 100 µM with HCT-116 colon; more than 100 µM in the experiment on MOLT-4 leukemia; 64 µM with NCI-H522 lung. Also, the TGI in the experiment on SN12C renal amounted to 29.4 µM; with HCT-15 colon it was 39.5 µM; in the experiment with SF-295 CNS, 60.4 µM.
`COc1ccc(-c2cc(=O)c3c(C)cc(C)nc3[nH]2)cc1`: the TGI in the experiment with A498 renal was more than 100 µM; with LOX IMVI melanoma, more than 100 µM; in the experiment on UO-31 renal, more than 100 µM; in the experiment with HCT-116 colon it was more than 100 µM; in the experiment with MOLT-4 leukemia, 42.9 µM; in the experiment on NCI-H522 lung it was more than 100 µM. In addition, the TGI in the experiment on SN12C renal, in the experiment on HCT-15 colon and in the experiment with SF-295 CNS was more than 100 µM throughout. For the same molecule, the GI50 is 36.5 µM in the experiment with HCT-116 colon and 42.5 µM with SF-295 CNS.
As for `COc1ccc(N2Cc3cnc(Nc4ccccc4)nc3N([C@@H]3CC[C@@H](O)C3)C2=O)cc1`, the GI50 in the experiment on A498 renal was 0.128 µM; in the experiment on LOX IMVI melanoma, 1.14 µM; in the experiment with UO-31 renal it was 0.869 µM; in the experiment on HCT-116 colon it was 2.84 µM; in the experiment on MOLT-4 leukemia, 2.61 µM; with NCI-H522 lung, 2.93 µM. Moreover, the GI50 was 1.31 µM in the experiment with SN12C renal, 1.66 µM in the experiment with HCT-15 colon and 17.6 µM with SF-295 CNS. Further, the TGI is 1.2 µM in the experiment with A498 renal; 5.17 µM in the experiment on LOX IMVI melanoma; more than 16.5 µM in the experiment with UO-31 renal; more than 25 µM with HCT-116 colon; more than 17.8 µM in the experiment on MOLT-4 leukemia; more than 18.8 µM with NCI-H522 lung. The TGI with SN12C renal, in the experiment with HCT-15 colon and in the experiment on SF-295 CNS was more than 25 µM throughout.
Regarding `COc1cc(CCN)c2c(c1OC)SSSSS2`, the GI50 in the experiment with A498 renal was 1.98 µM; in the experiment with LOX IMVI melanoma, 0.0127 µM; in the experiment on UO-31 renal, 0.262 µM; with HCT-116 colon it was 0.22 µM; in the experiment with MOLT-4 leukemia, 0.0646 µM; with NCI-H522 lung, 0.203 µM. Further, the GI50 was 1.13 µM in the experiment with SN12C renal, 0.319 µM in the experiment with HCT-15 colon and 1.79 µM with SF-295 CNS. The TGI was 3.64 µM in the experiment with A498 renal; 1.12 µM with UO-31 renal; more than 100 µM in the experiment on MOLT-4 leukemia; 0.849 µM with NCI-H522 lung; 2.38 µM in the experiment on SN12C renal; 1.44 µM in the experiment on HCT-15 colon. The molecule also displayed a TGI in the experiment with SF-295 CNS of 3.99 µM.
